Assay results taken from patent publication US20250170248A1, “SMARCA DEGRADERS AND USES THEREOF” (Kymera Therapeutics, Inc., priority 2021, published 2025).

What was measured:
Type in all cases: cell-based
SMARCA2 [1] = biological target: T1, SMARCA2 (Homo sapiens, UniProt P51531); assay: MSD SMARCA2 degradation in A549 cell line; conditions: for Dmax: A549, A549 cells; for Dmax / DC50: 24 h; for DC50 / SMARCA2 MSD A549 degradation 24 h: Average Dmax %: A549 cells; for DC50: read-out: SMARCA2 MSD A549 degradation 24 h: Average external-Abs DC50
In short: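 A549 cells treated 24 h with compound, 3-fold series from 1000 nM. Lysates captured on MSD plates and SMARCA2 quantified with anti-SMARCA2 and SULFO-TAG secondary antibodies (electrochemiluminescence). DC50 and Dmax (% degradation at 24 h) reported as letter bins.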

SMARCA4 = biological target: T2, SMARCA4 (Homo sapiens, UniProt P51532); assay: SMARCA4 Western blot degradation in MV4-11 cells; conditions: for Dmax: MV4-11, MV4-11 cells, read-out: SMARCA4 MSD MV411 degradation 24 h: average Dmax %; for Dmax / DC50: 24 h; for DC50 / SMARCA4 MSD MV411 degradation 24 h: average Dmax %: MV4-11 cells; for DC50: read-out: SMARCA4 MSD MV411 degradation 24 h: Mean external-Abs DC50
T2 construct: SMARCA2/SMARCA4 protein degradation selectivity in MV4-11 cells; endogenous in cells; host or cells: MV4-11
In short: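 24 h compound exposure, MV4-11; RIPA lysates → SDS-PAGE → NC membrane; anti-SMARCA2/BRM, anti-BRG1, β-actin loading control; LI-COR fluorescence read. DC50 and Dmax at 24 h reported as letter bins.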

SMARCA2 [2] = biological target: T1, SMARCA2; assay: SMARCA2 Western blot degradation in MV4-11 cells; parameters: SMARCA2/SMARCA4 protein degradation selectivity in MV4-11 cells; endogenous in cells; host or cells: MV4-11; conditions: for Dmax: MV4-11, MV4-11 cells, read-out: SMARCA2 MSD MV411 degradation 24 h: average Dmax %; for Dmax / DC50 / SMARCA2 MSD MV411 degradation 24 h: average Dmax %: 24 h; for DC50 / Selectivity in MV411 / SMARCA2 MSD MV411 degradation 24 h: average Dmax %: MV4-11 cells; for DC50: read-out: SMARCA2 MSD MV411 degradation 24 h: Mean external-Abs DC50; for Selectivity in MV411: SMARCA2/4 selectivity

T2 sequence (P51532 whole entry): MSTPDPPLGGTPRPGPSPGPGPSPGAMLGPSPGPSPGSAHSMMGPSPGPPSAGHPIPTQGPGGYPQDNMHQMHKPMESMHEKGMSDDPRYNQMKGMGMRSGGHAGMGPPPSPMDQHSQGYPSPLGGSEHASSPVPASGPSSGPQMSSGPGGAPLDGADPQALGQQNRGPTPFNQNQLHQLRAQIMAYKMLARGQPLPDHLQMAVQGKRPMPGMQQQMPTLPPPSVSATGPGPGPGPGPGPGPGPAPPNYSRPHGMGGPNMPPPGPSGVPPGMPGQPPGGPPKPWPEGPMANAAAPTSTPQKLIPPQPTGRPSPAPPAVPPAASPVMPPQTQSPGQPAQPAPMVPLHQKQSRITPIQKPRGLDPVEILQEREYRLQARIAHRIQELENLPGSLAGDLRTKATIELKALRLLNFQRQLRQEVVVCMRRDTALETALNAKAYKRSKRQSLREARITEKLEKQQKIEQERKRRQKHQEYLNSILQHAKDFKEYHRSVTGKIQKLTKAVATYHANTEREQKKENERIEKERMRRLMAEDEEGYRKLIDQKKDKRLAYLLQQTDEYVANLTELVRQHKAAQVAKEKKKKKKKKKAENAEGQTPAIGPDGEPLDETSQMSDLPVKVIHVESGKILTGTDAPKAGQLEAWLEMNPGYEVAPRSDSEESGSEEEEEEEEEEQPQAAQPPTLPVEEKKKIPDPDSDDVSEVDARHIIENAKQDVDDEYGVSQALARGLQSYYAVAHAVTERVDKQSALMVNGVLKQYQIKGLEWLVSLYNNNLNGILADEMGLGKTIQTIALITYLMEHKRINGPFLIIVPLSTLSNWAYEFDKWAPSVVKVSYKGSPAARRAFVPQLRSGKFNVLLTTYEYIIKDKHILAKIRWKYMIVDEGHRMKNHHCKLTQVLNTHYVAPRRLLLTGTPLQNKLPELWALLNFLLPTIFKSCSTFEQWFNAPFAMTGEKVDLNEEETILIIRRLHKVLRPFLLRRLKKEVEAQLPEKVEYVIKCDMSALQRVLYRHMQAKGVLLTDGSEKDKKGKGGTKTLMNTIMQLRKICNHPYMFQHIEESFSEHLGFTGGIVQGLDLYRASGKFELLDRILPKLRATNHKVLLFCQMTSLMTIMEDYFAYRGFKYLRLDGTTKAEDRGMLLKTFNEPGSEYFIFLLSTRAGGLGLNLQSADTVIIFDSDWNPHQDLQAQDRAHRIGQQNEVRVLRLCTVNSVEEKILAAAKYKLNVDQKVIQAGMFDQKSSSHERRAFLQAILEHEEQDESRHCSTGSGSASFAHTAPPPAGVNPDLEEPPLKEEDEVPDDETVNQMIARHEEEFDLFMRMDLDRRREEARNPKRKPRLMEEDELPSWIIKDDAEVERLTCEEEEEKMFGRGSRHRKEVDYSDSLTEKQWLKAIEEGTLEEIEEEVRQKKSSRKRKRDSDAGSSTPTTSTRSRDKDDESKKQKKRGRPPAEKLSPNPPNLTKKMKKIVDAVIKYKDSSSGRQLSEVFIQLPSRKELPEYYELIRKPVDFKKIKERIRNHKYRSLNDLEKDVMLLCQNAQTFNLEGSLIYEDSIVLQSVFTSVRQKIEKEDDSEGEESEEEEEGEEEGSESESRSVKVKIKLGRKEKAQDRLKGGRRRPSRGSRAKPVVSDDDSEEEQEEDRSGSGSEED
T1 sequence (P51531 whole entry): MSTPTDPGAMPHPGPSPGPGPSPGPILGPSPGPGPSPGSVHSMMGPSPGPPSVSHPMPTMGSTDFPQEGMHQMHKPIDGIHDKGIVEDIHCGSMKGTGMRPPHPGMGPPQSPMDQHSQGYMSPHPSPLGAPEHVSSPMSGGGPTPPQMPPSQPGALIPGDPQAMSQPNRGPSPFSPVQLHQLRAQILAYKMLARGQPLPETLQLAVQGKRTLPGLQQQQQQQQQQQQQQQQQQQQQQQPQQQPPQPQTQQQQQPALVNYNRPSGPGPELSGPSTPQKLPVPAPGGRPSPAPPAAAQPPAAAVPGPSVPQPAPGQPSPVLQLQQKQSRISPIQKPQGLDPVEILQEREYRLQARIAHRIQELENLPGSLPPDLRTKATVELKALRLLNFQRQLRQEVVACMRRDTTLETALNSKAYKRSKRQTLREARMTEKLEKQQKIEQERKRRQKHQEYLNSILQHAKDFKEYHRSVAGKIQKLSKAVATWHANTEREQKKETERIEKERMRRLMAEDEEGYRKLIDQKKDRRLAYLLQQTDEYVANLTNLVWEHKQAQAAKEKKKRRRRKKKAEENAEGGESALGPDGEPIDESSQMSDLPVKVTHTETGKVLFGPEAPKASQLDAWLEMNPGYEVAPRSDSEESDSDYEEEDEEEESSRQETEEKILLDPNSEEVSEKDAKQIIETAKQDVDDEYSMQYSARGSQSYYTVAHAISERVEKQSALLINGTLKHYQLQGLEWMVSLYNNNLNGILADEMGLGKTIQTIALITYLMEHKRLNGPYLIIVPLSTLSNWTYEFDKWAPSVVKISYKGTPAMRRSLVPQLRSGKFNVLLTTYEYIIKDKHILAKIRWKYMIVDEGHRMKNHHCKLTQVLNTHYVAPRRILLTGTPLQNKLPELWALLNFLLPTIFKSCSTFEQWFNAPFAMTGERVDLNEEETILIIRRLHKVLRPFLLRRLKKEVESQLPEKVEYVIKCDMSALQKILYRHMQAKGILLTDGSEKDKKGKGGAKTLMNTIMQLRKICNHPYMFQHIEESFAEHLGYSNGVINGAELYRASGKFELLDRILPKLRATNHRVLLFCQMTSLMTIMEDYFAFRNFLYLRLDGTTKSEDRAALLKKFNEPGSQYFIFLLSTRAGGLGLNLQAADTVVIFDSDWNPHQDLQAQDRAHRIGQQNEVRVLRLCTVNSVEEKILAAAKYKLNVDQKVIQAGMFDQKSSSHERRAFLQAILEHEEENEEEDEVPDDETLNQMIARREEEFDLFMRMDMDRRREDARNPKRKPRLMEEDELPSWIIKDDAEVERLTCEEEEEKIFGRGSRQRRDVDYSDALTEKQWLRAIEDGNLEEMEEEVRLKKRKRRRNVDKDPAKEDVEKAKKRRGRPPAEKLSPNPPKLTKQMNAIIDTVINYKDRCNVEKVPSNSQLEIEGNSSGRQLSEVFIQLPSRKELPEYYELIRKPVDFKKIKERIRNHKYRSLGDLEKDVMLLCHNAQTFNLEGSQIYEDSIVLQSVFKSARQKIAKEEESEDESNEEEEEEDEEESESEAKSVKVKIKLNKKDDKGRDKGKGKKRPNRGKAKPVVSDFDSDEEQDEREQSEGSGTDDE

| Structure (SMILES) | Dmax (SMARCA2 [1]) [%] | DC50 (SMARCA2 [1]) [nM] | Dmax (SMARCA4) [%] | DC50 (SMARCA4) [nM] | Dmax (SMARCA2 [2]) [%] | DC50 (SMARCA2 [2]) [nM] | Selectivity in MV411 (SMARCA2 [2]) | SMARCA2 MSD A549 degradation 24 h: Average Dmax % (SMARCA2 [1]) | SMARCA4 MSD MV411 degradation 24 h: average Dmax % (SMARCA4) | SMARCA2 MSD MV411 degradation 24 h: average Dmax % (SMARCA2 [2]) |
| --- | --- | --- | --- | --- | --- | --- | --- | --- | --- | --- |
| C#Cc1ccc(CNC(=O)[C@@H]2C[C@@H](O)CN2C(=O)[C@@H](NC(=O)C2CCC3(CC2)CC(N2CCC(c4ccc(N5CCN6c7cc(-c8ccccc8O)nnc7NC[C@H]6C5)cc4)CC2)C3)C(C)(C)C)cc1 (stereo partly shown) [I-95] | < 50 | > 100 | < 50 | > 100 | < 50 | > 100 | C (C (10-100 fold)) | – | – | – |
| Cc1ncsc1-c1ccc(CNC(=O)[C@@H]2C[C@@H](O)CN2C(=O)C(c2cc(OCCCN3CCC(c4cnc(N5CCN6c7cc(-c8ccccc8O)nnc7NC[C@H]6C5)nc4)CC3)no2)C(C)C)cc1 (single isomer, unassigned) [I-53] | > 90 | 10 to 50 | > 90 | 1 to 10 | > 90 | < 1 | D (D (<10 fold)) | – | – | – |
| C#Cc1ccc(CNC(=O)[C@@H]2C[C@@H](O)CN2C(=O)[C@@H](NC(=O)CCCN2CCC(N3CC4(CC(N5CCN6c7cc(-c8ccccc8O)nnc7NC[C@H]6C5)C4)C3)CC2)C(C)(C)C)cc1 (single isomer, unassigned) [I-244] | > 90 | > 100 | 50 to 70 | > 100 | > 90 | 10 to 100 | C (C (10-100 fold)) | – | – | – |
| C#Cc1ccc(CNC(=O)[C@@H]2C[C@@H](O)CN2C(=O)[C@@H](NC(=O)N2CC3(CC(N4CCC(c5cnc(N6CCc7[nH]c8nnc(-c9ccccc9O)cc8c7[C@H]6C)nc5)CC4)C3)C2)C(C)(C)C)c(OC)c1 [I-119] | > 90 | < 10 | > 90 | 10 to 100 | > 90 | 1 to 10 | C (C (10-100 fold)) | – | – | – |
| C#Cc1ccc(CNC(=O)[C@@H]2C[C@@H](O)CN2C(=O)[C@@H](NC(=O)N2CC3(CC(N4CCC([C@H]5CC[C@@H](N6CCc7[nH]c8nnc(-c9ccccc9O)cc8c7[C@H]6C)CC5)CC4)C3)C2)C(C)(C)C)cc1 [I-185] | > 90 | > 100 | 70 to 90 | > 100 | 70 to 90 | 10 to 100 | C (C (10-100 fold)) | – | – | – |
| Cc1ncsc1-c1ccc(CNC(=O)[C@@H]2C[C@@H](O)CN2C(=O)[C@@H](NC(=O)[C@H]2CC3(C2)C[C@H](N2CCC(N4CCC(c5ccc6[nH]c7nnc(-c8ccccc8O)cc7c6c5)CC4)CC2)C3)C(C)(C)C)cc1 (single isomer, unassigned) [I-29] | – | > 100 | – | > 100 | – | 10 to 100 | B (B (>100-500 fold)) | C (C (50-70% degradation)) | D (D (<50% degradation)) | C (C (50-70% degradation)) |
| C#Cc1ccc(CNC(=O)[C@@H]2C[C@@H](O)CN2C(=O)[C@@H](NC(=O)N2CC3(CC(N4CCC(c5cnc(N6CCc7[nH]c8nnc(-c9ccccc9O)cc8c7[C@H]6CO)nc5)CC4)C3)C2)C(C)(C)C)c(Cl)c1 [I-318] | > 90 | 10 to 50 | 70 to 90 | > 100 | 70 to 90 | 1 to 10 | C (C (10-100 fold)) | – | – | – |
| C#Cc1ccc(CNC(=O)[C@@H]2C[C@@H](O)CN2C(=O)[C@@H](NC(=O)N2CC3(CC(N4CCC(N5CCC(N6CCc7[nH]c8nnc(-c9ccccc9O)cc8c7[C@H]6C)CC5)CC4)C3)C2)C(C)(C)C)c(F)c1 [I-181] | > 90 | > 100 | < 50 | > 100 | 50 to 70 | 10 to 100 | B (B (>100-500 fold)) | – | – | – |
| C#Cc1ccc(CNC(=O)[C@@H]2C[C@@H](O)CN2C(=O)[C@@H](NC(=O)N2CC3(CC(N4CCC(c5cnc(N6CCc7[nH]c8nnc(-c9ccccc9O)cc8c7[C@H]6C)nc5)CC4)C3)C2)C(C)(C)C)cc1Cl [I-309] | > 90 | 10 to 50 | 70 to 90 | > 100 | > 90 | 10 to 100 | C (C (10-100 fold)) | – | – | – |
| C#Cc1ccc([C@H](C)NC(=O)[C@@H]2C[C@@H](O)CN2C(=O)[C@H](c2cc(OCCN3CCN4c5cc(-c6ccccc6O)nnc5NC[C@H]4C3)no2)C(C)C)cc1 (single isomer, unassigned) [I-272] | 50 to 70 | > 100 | < 50 | > 100 | 50 to 70 | > 100 | C (C (10-100 fold)) | – | – | – |
| Cc1ncsc1-c1ccc(CNC(=O)[C@@H]2C[C@@H](O)CN2C(=O)[C@@H](NC(=O)[C@H]2CCC3(CC2)C[C@H](N2CCC4(CC2)CN(C(=O)N2CCN5c6cc(-c7ccccc7O)nnc6NC[C@H]5C2)CCO4)C3)C(C)(C)C)cc1 (single isomer, unassigned) [I-133] | 70 to 90 | > 100 | 50 to 70 | > 100 | 70 to 90 | 10 to 100 | C (C (10-100 fold)) | – | – | – |
| Cc1ncsc1-c1ccc(CNC(=O)[C@@H]2C[C@@H](O)CN2C(=O)C(c2cc(OC[C@H]3CC[C@H](N4CCC(c5cnc(N6CCc7[nH]c8nnc(-c9ccccc9O)cc8c7[C@@H]6C)nc5)CC4)CC3)no2)C(C)C)cc1 (single isomer, unassigned) [I-15] | > 90 | 10 to 50 | > 90 | 10 to 100 | > 90 | 1 to 10 | C (C (10-100 fold)) | – | – | – |
| C#Cc1ccc(CNC(=O)[C@@H]2C[C@@H](O)CN2C(=O)[C@@H](NC(=O)N2CC3(CC(N4CCC(N5CCC(N6CCc7[nH]c8nnc(-c9ccccc9O)cc8c7[C@@H]6C)CC5)CC4)C3)C2)C(C)(C)C)c(F)c1 [I-182] | > 90 | > 100 | 70 to 90 | > 100 | 50 to 70 | 10 to 100 | D (D (<10 fold)) | – | – | – |
| Cc1ncsc1-c1ccc(CNC(=O)[C@@H]2C[C@@H](O)CN2C(=O)C(c2cc(N3CC4(CC(N5CCC(c6cnc(N7CCc8[nH]c9nnc(-c%10ccccc%10O)cc9c8[C@@H]7C)nc6)CC5)C4)C3)no2)C(C)C)cc1 (stereo partly shown) [I-11] | > 90 | 10 to 50 | > 90 | 10 to 100 | > 90 | 1 to 10 | D (D (<10 fold)) | – | – | – |
| C#Cc1ccc(CNC(=O)[C@@H]2C[C@@H](O)CN2C(=O)[C@@H](NC(=O)[C@H]2CCC3(CC2)C[C@H](N2CCC(N4CCC(N5CCN6c7cc(-c8ccccc8O)nnc7NC[C@H]6C5)CC4)CC2)C3)C(C)(C)C)cc1 (single isomer, unassigned) [I-175] | – | 50 to 100 | – | > 100 | – | 1 to 10 | B (B (>100-500 fold)) | A (A (>90% degradation)) | D (D (<50% degradation)) | B (B (>70-90% degradation)) |
| C#Cc1ccc(CNC(=O)[C@@H]2C[C@@H](O)CN2C(=O)[C@@H](NC(=O)N2CC3(CC(N4CCC(c5cnc(N6CCc7[nH]c8nnc(-c9ccccc9O)cc8c7[C@H]6C)nc5)CC4)C3)C2)C(C)(C)C)cc1F [I-310] | > 90 | 10 to 50 | > 90 | > 100 | > 90 | 1 to 10 | C (C (10-100 fold)) | – | – | – |
